Holding throughout (type): ADME, organism-based
Holding throughout (parameters): dose 5 mg/kg, dosed compound name [14C]CS-1036, route oral
Common to all, as to conditions: in vivo

One data set has as its system Lung. Nature of the data set: Drug uptake in albino F344/DuCrlCrlj rat lung at 5 mg/kg, po after 4 hrs by liquid scintillation counting.
For a further data set, the system named is Plasma. As to the kind of experiment: Drug uptake in albino F344/DuCrlCrlj rat plasma at 5 mg/kg, po after 8 hrs by liquid scintillation counting.
A short description of data set [1]: Drug uptake in albino F344/DuCrlCrlj rat bone marrow at 5 mg/kg, po after 168 hrs by liquid scintillation counting.
A further data set concerns Large intestine. As to the kind of experiment: Drug uptake in albino F344/DuCrlCrlj rat large intestine at 5 mg/kg, po after 1 hr by liquid scintillation counting.
Another data set relates to Zone of skin. As to the kind of experiment: Drug uptake in albino F344/DuCrlCrlj rat skin at 5 mg/kg, po after 1 hr by liquid scintillation counting.
In another data set the test system is Aorta. Nature of the data set: Drug uptake in albino F344/DuCrlCrlj rat aorta assessed as ng equivalent of CS-1036 at 5 mg/kg, po after 4 hrs by liquid scintillation counting.
Data set [2] is described as follows: Drug uptake in albino F344/DuCrlCrlj rat bone marrow at 5 mg/kg, po after 1 hr by liquid scintillation counting.
A short description of data set [3]: Drug uptake in albino F344/DuCrlCrlj rat epididymis assessed as ng equivalent of CS-1036 at 5 mg/kg, po after 8 hrs by liquid scintillation counting.
Data set [4] is described as follows: Drug uptake in albino F344/DuCrlCrlj rat mandibular gland assessed as ng equivalent of CS-1036 at 5 mg/kg, po after 4 hrs by liquid scintillation counting.
Data set [5] is described as follows: Drug uptake in albino F344/DuCrlCrlj rat thyroid gland assessed as ng equivalent of CS-1036 at 5 mg/kg, po after 1 hr by liquid scintillation counting.
Another data set has as its system Harderian gland. As to the kind of experiment: Drug uptake in albino F344/DuCrlCrlj rat harderian gland assessed as ng equivalent of CS-1036 at 5 mg/kg, po after 336 hrs by liquid scintillation counting.
For the next data set, the system named is Liver. Nature of the data set: Drug uptake in albino F344/DuCrlCrlj rat liver at 5 mg/kg, po after 8 hrs by liquid scintillation counting.
Another data set concerns Adrenal gland. Nature of the data set: Drug uptake in albino F344/DuCrlCrlj rat adrenal gland assessed as ng equivalent of CS-1036 at 5 mg/kg, po after 4 hrs by liquid scintillation counting.

Structures are written as SMILES.

In the case of `C[C@H]1O[C@@H](O[C@H]2[C@H](O)[C@@H](O)[C@@H](O[14C@H]3[14C@H](O)[14CH2]N[14C@@H]3[14CH2]O)O[C@@H]2CO)[C@H](O)[C@@H](O)[C@@H]1O`, the Radiolabel recovery was found to be 37.8 ngequiv/g in the data set on Lung; 27.7 ngequiv/ml in the data set on Plasma; 47 ngequiv/g in data set [1]; 1070 ngequiv/g in the data set with Large intestine; 38.3 ngequiv/g in the data set with Zone of skin; 13.3 ngequiv/g with Aorta. Moreover, the Radiolabel recovery came to 34.9 ngequiv/g in data set [2]; 37.8 ngequiv/g in data set [3]; 9.2 ngequiv/g in data set [4]; 7.2 ngequiv/g in data set [5]; 2.33 ngequiv/g with Harderian gland; 193 ngequiv/g in the data set with Liver. Besides, the Radiolabel recovery in the data set on Adrenal gland is on record as 8.6 ngequiv/g.

The values are drawn from ChEMBL document CHEMBL3526002, “Tissue distribution and identification of radioactivity components at elimination phase after oral administration of [¹⁴C]CS-1036, an α-amylase inhibitor, to rats” (Drug Metab Dispos, 2013).
